Patent publication US20220144826A1, “Heteroaromatic and Heterobicyclic Aromatic Derivatives for the Treatment of Ferroptosis-Related Disorders” (COLLABORATIVE MEDICINAL DEVELOPMENT, LLC, priority 2019, published 2022)

Tested on: N27 rat dopaminergic neural cells
Experiment: MTT assay in N27 rat dopaminergic neural cells: inhibition of RSL3-induced cell death (ferroptosis)
Assay type: cell-based
Details: Rattus norvegicus, ferroptosis induced by 0.5 μM RSL3, 24 hours, viability by MTT
Procedure: MTT Assay in N27 Rat Dopaminergic Neural Cells
N27 rat dopaminergic neural cells (Millipore, SCC048) were cultured in RPMI-1640 media (Wisent, 350-000) supplemented with 1×GlutaMAX (Gibco, 35050-061), 10% FBS (embryonic stem cell qualified; Wisent, 920-040), and 1× Penicillin-Streptomycin (Wisent, 450-201). Cells were grown in humidified tissue culture incubator at 37° C. with 5% CO2, for up to 10 passages. To evaluate the ability of test compounds to inhibit RSL3-induced cell death, N27 cells were seeded in clear 96-well tissue culture plates (Sarstedt, 83.3924) at a density of 15,000 cells/well. On the next day, the medium was changed to fresh complete RPMI-1640. Eight-point dilution series of test compounds were added to the cells. Then, ferroptosis was induced by addition of 0.5 μM RSL3 (vehicle-treated cells served as control). Ferrostatin-1 (Fer-1) was included in each assay as control inhibitor of ferroptosis. Plates were incubated for 24 hours at 37° C. in a tissue culture incubator, then cell viability was determined by MTT assay. Briefly, Thiazolyl Blue Tetrazolium Bromide [3-(4,5-dimethylthiazol-2-yl)-2,5-diphenyltetrazolium bromide or “MTT” ] (Sigma) stock solution (5 mg/mL in PBS, sterilized by filtration) was diluted 1:1 with complete growth medium, and added on the cells to a final concentration of 0.5 mg/mL. Cells were incubated with MTT for 4 hours at 37° C., protected from light, in a humidified, 5% CO2 atmosphere. Medium was then completely removed from the wells by gentle aspiration and converted MTT formazan crystals were dissolved in 150 μL of DMSO. Absorbance of converted dye was measured at 595 nm with background subtraction at 690 nm using the BioTek Cytation5 Microplate Reader. Blank reading (absorbance from wells containing media and vehicle only, no cells) was removed from all sample wells. Viability was calculated as a percentage of control cells (vehicle-treated cells were set as 100% viability). Dose-response curves were drawn and IC50 values were calculated using GraphPad Prism software, version 7.

| Compound | IC50 (N27, 24 h) [nM] | further results |
| --- | --- | --- |
| CCCCC(OC)c1cc2c(c(Nc3ccccn3)c1)NCCC2 (centres unmarked) [Compound B-397, 6-(1-methoxypentyl)-N-(2-pyridyl)-1,2,3,4-tetrahydroquinolin-8-amine] | 70 |  |
| CCCCNc1nc2c(c(NC3CCCC3)n1)NCCC2 [Compound B-433, N2-Butyl-N4-cyclopentyl-5,6,7,8-tetrahydropyrido[3,2-d]pyrimidine-2,4-diamine] | 726 |  |
| CCCCN(C)c1nc2c(c(NC3CCCC3)n1)NCCC2 [Compound B-434, N2-Butyl-N4-cyclopentyl-N2-methyl-5,6,7,8-tetrahydropyrido[3,2-d]pyrimidine-2,4-diamine] | 397 |  |
| C1CNc2c(nc(C3CCCC3)nc2NC2CCCC2)C1 [Compound B-456, N,2-Dicyclopentyl-5,6,7,8-tetrahydropyrido[3,2-d]pyrimidin-4-amine] | 153 |  |
| COCCOc1nc2c(c(NC3CCCC3)n1)NCCC2 [Compound B-495, N-cyclopentyl-2-(2-methoxyethoxy)-5,6,7,8-tetrahydropyrido[3,2-d]pyrimidin-4-amine] | 160 |  |
| CCC/C=C/c1nc(NC2CCCC2)c2c(n1)SCC(=O)N2 [Compound B-600, 4-(cyclopentylamino)-2-[(1E)-pent-1-en-1-yl]-5H,6H,7H-pyrimido[4,5-b][1,4]thiazin-6-one] | ≥ 3000 |  |
| CCCCCc1nc(NC2CCCC2)c2c(n1)SCCN2 [Compound B-601, N-cyclopentyl-2-pentyl-5H,6H,7H-pyrimido[4,5-b][1,4]thiazin-4-amine] | 3 |  |
| CCCCCc1nc(NC2CCCC2)c2c(n1)S(=O)(=O)CCN2 [Compound B-602, N-cyclopentyl-8,8-dioxo-2-pentyl-6,7-dihydro-5H-pyrimido[4,5-b][1,4]thiazin-4-amine] | ≥ 3000 |  |
| CCC/C=C/c1nc(NC2CCOC2)c2c(n1)OCC(=O)N2 (centres unmarked) [Compound B-603, 4-[(oxolan-3-yl)amino]-2-[(1E)-pent-1-en-1-yl]-5H,6H,7H-pyrimido[4,5-b][1,4]oxazin-6-one] | > 3000 |  |
| CCCCCc1nc(NC2CCOC2)c2c(n1)OCCN2 (centres unmarked) [Compound B-604, 2-pentyl-N-tetrahydrofuran-3-yl-6,7-dihydro-5H-pyrimido[4,5-b][1,4]oxazin-4-amine] | 388 |  |
| CCOC(=O)c1ccc(NC2CCCCC2)c(N)n1 [Compound B-626, FER-1] | 108 |  |
| CCCCC(=O)c1cc2c(c(NC3CCCC3)n1)NCCC2 [Compound B-647, 1-[8-(cyclopentylamino)-1,2,3,4-tetrahydro-1,7-naphthyridin-6-yl]pentan-1-one] | 8 |  |
| CCC/C=C/c1nc(NC2CCCC2)c2c(n1)OCCN2 [Compound B-710, N-cyclopentyl-2-[(E)-pent-1-enyl]-6,7-dihydro-5H-pyrimido[4,5-b][1,4]oxazin-4-amine] | 22 |  |
| CCCCCc1nc(NC2CCCC2)c2c(n1)OCCN2 [Compound B-711, N-cyclopentyl-2-pentyl-5H,6H,7H-pyrimido[4,5-b][1,4]oxazin-4-amine] |  | IC50: 41 nM |
| CCCCC(=O)c1nc(NC2CCCC2)c2c(n1)OCCN2 [Compound B-763, 1-[4-(cyclopentylamino)-5H,6H,7H-pyrimido[4,5-b][1,4]oxazin-2-yl]pentan-1-one] | 391 |  |
| CCCCCc1nc2c(c(NC3CCCC3)n1)NC(C)(C)CC2 [Compound B-917, N-cyclopentyl-6,6-dimethyl-2-pentyl-5H,6H,7H,8H-pyrido[3,2-d]pyrimidin-4-amine] | > 3000 |  |
| CCCCC(O)c1nc2c(c(NC3CCCC3)n1)NCCC2 (centres unmarked) [Compound C-79, 1-[4-(cyclopentylamino)-5,6,7,8-tetrahydropyrido[3,2-d]pyrimidin-2-yl]pentan-1-ol] | 112 |  |
| CCCCC(=O)c1nc2c(c(NC3CCCC3)n1)NCCC2 [Compound C-82, 1-[4-(cyclopentylamino)-5,6,7,8-tetrahydropyrido[3,2-d]pyrimidin-2-yl]pentan-1-one] | 84 |  |

| Compound | IC50 (N27, 24 h) [nM] | further results |
| --- | --- | --- |
| c1nc2c(c(NC3CCCC3)n1)NCCC2 [Compound C-84, N-cyclopentyl-5,6,7,8-tetrahydropyrido[3,2-d]pyrimidin-4-amine] | 646 |  |
| C(#Cc1nc2c(c(NC3CCCC3)n1)NCCC2)c1ccccc1 [Compound C-91, N-cyclopentyl-2-(2-phenylethynyl)-5,6,7,8-tetrahydropyrido[3,2-d]pyrimidin-4-amine] | 35 |  |
| CC(=O)c1nc2c(c(NC3CCCC3)n1)NCCC2 [Compound C-92, 1-[4-(cyclopentylamino)-5,6,7,8-tetrahydropyrido[3,2-d]pyrimidin-2-yl]ethanone] | 2070 |  |
| CCCCC(O)c1nc2c(c(N3CCCC3)n1)NCCC2 (centres unmarked) [Compound E-09] | 492 |  |
| N#Cc1nc2c(c(NC3CCCC3)n1)NCCC2 [Compound F-38, 4-(cyclopentylamino)-5,6,7,8-tetrahydropyrido[3,2-d]pyrimidine-2-carbonitrile] | 812 |  |
| CCC(C)Nc1cnc(-c2ccc(C)cc2)nc1NC1CCCC1 (centres unmarked) [Compound F-69, N^4-cyclopentyl-2-(p-tolyl)-N^5-sec-butyl-pyrimidine-4,5-diamine] | 28 |  |
| CCC(C)Nc1cnc(-c2cccnc2)nc1NC1CCCC1 (centres unmarked) [Compound F-78, N^4-cyclopentyl-2-(3-pyridyl)-N^5-sec-butyl-pyrimidine-4,5-diamine] | 89 |  |
| CCC(C)Nc1cnc(-c2cncnc2)nc1NC1CCCC1 (centres unmarked) [Compound F-81, N^4-cyclopentyl-2-pyrimidin-5-yl-N^5-sec-butyl-pyrimidine-4,5-diamine] | 121 |  |
| c1ncc(-c2ncc(NC3COC3)c(NC3CCCC3)n2)cn1 [Compound F-82, N^4-cyclopentyl-N^5-(oxetan-3-yl)-2-pyrimidin-5-yl-pyrimidine-4,5-diamine] | > 625 |  |
| CCC(C)Nc1cnc(-c2ccncc2)nc1NC1CCCC1 (centres unmarked) [Compound F-88, N^4-cyclopentyl-2-(4-pyridyl)-N^5-sec-butyl-pyrimidine-4,5-diamine] | 106 |  |
| CC(C)=Cc1nc(C)nc(NC2CCCC2)c1N [Compound F-99, N^4-cyclopentyl-2-methyl-6-(2-methylprop-1-enyl)pyrimidine-4,5-diamine] | > 625 |  |
| CCCCC(O)c1nc2c(c(Nc3ccccn3)n1)NCCC2 (centres unmarked) [Compound G-63, 1-[4-(2-pyridylamino)-5,6,7,8-tetrahydropyrido[3,2-d]pyrimidin-2-yl]pentan-1-ol] |  | IC50 (N27, 24 h, cell unit uM): > 10000 nM |
| CCCCC(=O)c1nc2c(c(Nc3ccccn3)n1)NCCC2 [Compound G-65, 1-[4-(2-pyridylamino)-5,6,7,8-tetrahydropyrido[3,2-d]pyrimidin-2-yl]pentan-1-one] |  | IC50 (N27, 24 h, cell unit uM): > 10000 nM |
| CCC(C)Nc1ccc(-c2ccc(C)cc2)nc1NC1CCCC1 (centres unmarked) [Compound H-61, N^2-cyclopentyl-6-(p-tolyl)-N^3-sec-butyl-pyridine-2,3-diamine] | 7 |  |
| CCCCCc1ccc(NC(C)CC)c(NC2CCCC2)n1 (centres unmarked) [Compound H-72, N^2-cyclopentyl-6-pentyl-N^3-sec-butyl-pyridine-2,3-diamine] | 6 |  |
| CCC(C)Nc1ccc(-c2cccnc2)nc1NC1CCCC1 (centres unmarked) [Compound H-74, N^2-cyclopentyl-6-(3-pyridyl)-N^3-sec-butyl-pyridine-2,3-diamine] | 5 |  |
| c1cncc(-c2ccc(NC3COC3)c(NC3CCCC3)n2)c1 [Compound H-75, N^2-cyclopentyl-N^3-(oxetan-3-yl)-6-(3-pyridyl)pyridine-2,3-diamine] | 44 |  |
